This test addresses human β2 adrenergic receptor (Homo sapiens, UniProt P07550). Description: Whole-cell cAMP Flashplate assay with a lung epithelial cell line (BEAS-2B) endogenously expressing human β2 adrenergic receptor (Assay Test Procedure E). It is filed as cell-based. The note with it: BEAS-2B human lung epithelial cells, endogenous receptor. The method, then:
For the determination of agonist potencies and efficacies (intrinsic activities) in a cell line expressing endogenous levels of the β2 adrenergic receptor, a human lung epithelial cell line (BEAS-2B) was used (ATCC CRL-9609, American Type Culture Collection, Manassas, Va.) (January B, et al., British Journal of Pharmacology, 1998, 123, 4, 701-11). Cells were grown to 75-90% confluency in complete, serum-free medium (LHC-9 MEDIUM containing Epinephrine and Retinoic Acid, cat #181-500, Biosource International, Camarillo, Calif.). […] On the day of the assay, cells were rinsed with PBS, lifted by scraping with 5 mM EDTA in PBS, and counted. […] Plates were sealed, incubated over night at 4° C. and counted the next morning in a Topcount scintillation counter (Packard BioScience Co., Meriden, Conn.). The amount of cAMP produced per mL of reaction was calculated based on the counts observed for samples and cAMP standards, as described in the manufacturer's user manual. Data were analyzed by nonlinear regression analysis with the GraphPad Prism Software package (GraphPad Software, Inc., San Diego, Calif.) using the 4-parameter model for sigmoidal dose-response. […]

pEC50: −log10 of the molar value.

Sequence of human β2 adrenergic receptor (P07550 whole entry): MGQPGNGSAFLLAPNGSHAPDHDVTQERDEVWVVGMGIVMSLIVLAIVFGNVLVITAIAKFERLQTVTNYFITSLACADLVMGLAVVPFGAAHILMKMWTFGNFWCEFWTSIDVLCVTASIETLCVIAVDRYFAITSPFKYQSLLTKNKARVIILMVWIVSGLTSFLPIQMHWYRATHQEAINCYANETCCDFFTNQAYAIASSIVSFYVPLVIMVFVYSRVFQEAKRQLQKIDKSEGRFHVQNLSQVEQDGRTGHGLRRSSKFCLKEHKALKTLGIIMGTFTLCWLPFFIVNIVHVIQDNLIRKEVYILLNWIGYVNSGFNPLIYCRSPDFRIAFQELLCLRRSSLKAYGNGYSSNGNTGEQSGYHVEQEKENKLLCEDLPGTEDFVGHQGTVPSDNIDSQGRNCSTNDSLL

Turning to `NC(=O)C(c1ccccc1)(c1ccccc1)[C@@H]1CCN(CCCCCCCCCNCC(O)c2ccc(O)c3[nH]c(=O)ccc23)C1` (mixture of isomers) [Example 1, 2-((S)-1-{9-[2-Hydroxy-2-(8-hydroxy-2-oxo-1,2-dihydroquinolin-5-yl)ethylamino]-nonyl}pyrrolidin-3-yl)-2,2-diphenylacetamide], the pEC50 (as a rule, the negative decadic logarithm of the EC50, by convention in mol/L) is over 8.00.

(Values after patent US7829728B2, “Diarymethyl and related compounds” (Theravance, Inc., priority 2003, dated 2010).)
